{"source": "patent US10047341B2", "about": "“Generation of keratinocytes from pluripotent stem cells and maintenance of keratinocyte cultures” (FUJIFILM Cellular Dynamics, Inc., priority 2014, dated 2018)", "key": {"[1]": {"test_system": "primary human keratinocytes", "experiment": "Long-term culture of primary keratinocytes (population doubling)", "details": "for keratinocyte growth: KCM1 with IGF or insulin 0-10 μg/mL; for life span and stemness of primary keratinocytes in culture: niacinamide 3 mM, BMP4 0.5 ng/mL as components of KCM4", "procedure": "Keratinocytes were maintained in the indicated medium and passaged every 4-5 days (at ˜80% confluence). For passage, keratinocytes were incubated with a 0.1% Trypsin in Versene solution at 37° C. for 5 minutes. The trypsin was neutralized with 0.5 mg/mL of trypsin inhibitor. The cells were centrifuged at 1200 rpm for 4 min. Cells were counted with a Cellometer (Nexcelom). Cells (25,000-50,000) were plated per well of 6-well plates in the indicated keratinocyte culture media. Media was changed every other day.\nCells were maintained by serial passage at ˜80% confluence until senescence. The total number of cell doublings for each passage was calculated using the following formula: 3.32 log(N/No). Where No refers to the number of cells plated at the beginning of each passage and N is the number of cells recovered at the end of each passage."}, "[2]": {"test_system": "primary human keratinocytes", "experiment": "Morphology analysis of primary keratinocytes", "assay_type": "cell-based"}, "[3]": {"test_system": "primary human keratinocytes", "experiment": "Colony formation assay (CFA) of primary keratinocytes", "assay_type": "cell-based", "details": "for performance in CFA: KCM1 supplemented with either IGF or insulin, CFA in KCM1 (10 μg/mL insulin), 12 days", "experimental": "Cells were plated at low density (250 cells/well of a 6-well plate) and allowed to grow for 8-12 days. For FIGS. 7 and 8, cells were switched from the indicated culture medium to KCM1 (10 μg/mL insulin) at the beginning of the CFA. Keratinocytes were cultured in KCM1 (10 μg/mL insulin) for 12 days and colony size was measured. For FIGS. 9, 10, and 12, the CFAs were performed with the medium used for maintaining the keratinocytes. KCM4 needed to be supplemented with 5 μg/mL insulin to support colony growth. Colonies were allowed to grow for 8 days and colony size was measured. Following culture, plates were fixed and stained with Hoechst stain. The whole plate was imaged at 40× with an ImageXpress high content imager (Molecular Devices). The total number of colonies per well was counted and the size of each colony was measured using ImageJ software. Colony counts are shown in bar graphs where bar height represents the average number of colonies/well for each passage and the error bars represent the standard deviation. Colony sizes are presented in box and whisker plots where the center line represents the median, the box represents the inter-quartile range and the whiskers represent the 5-95 percentile. Data that fall outside this range are plotted individually."}, "[4]": {"test_system": "human ESC/iPSCs", "experiment": "iKCs derivation from human ESC/iPSCs: critical medium components", "assay_type": "cell-based", "details": "for K14 expression with different fibroblast growth factors: anti-K14 immunofluorescence"}, "[5]": {"test_system": "primary keratinocytes cultured in KCM4", "assay_type": "cell-based, human", "details": "Passage 3 keratinocytes in KCM4, 1.5 mM Ca^2+ for 3 days", "experimental": "Keratinocytes were cultured in KCM4 and at 80%-90% confluence, cells were either treated with 1.5 mM Ca^2+ for 3 days or fixed (no calcium control). Cells were assessed by immunocytochemistry for expression of differentiation markers Kl, Loricrin, and Filaggrin using polyclonal rabbit antibodies (Covance)."}, "[6]": {"details": "Passage 0, Day 14 differentiation culture, phase-contrast"}, "[7]": {"details": "KCM1, IGF and low concentrations of insulin (0.05 μg/mL and 0 μg/mL)"}, "[8]": {"details": "Passage 0, Day 14 differentiation culture"}}, "note": "Entries after “also recorded” stand apart in the source; their conditions may differ.", "data": [{"molecule": "VEGF", "values": [{"measurement": "proliferative potential in long-term culture", "setting": "[1]; VEGF 25 ng/mL added to KCM4", "value": "increase the proliferative potential of keratinocytes; also recorded: increased the proliferative potential of primary keratinocytes"}, {"measurement": "morphology after addition of VEGF", "setting": "[2]; VEGF 25 ng/mL added to KCM4", "value": "did not show any morphological differences"}, {"measurement": "effect in CFA in later passages", "setting": "[3]; VEGF 25 ng/mL added to KCM4", "value": "Positive effect"}]}, {"molecule": "Cc1cccc(-c2[nH]ncc2-c2ccc3ncccc3n2)n1", "note": "[TGFRKi, TGFβ RI Kinase Inhibitor II, reference compound]", "values": [{"measurement": "iKCs derivation when component is left out of the media", "setting": "[4]; [6]", "value": "iKCs cannot be derived efficiently"}]}, {"molecule": "[Ca+2]", "note": "[calcium]", "values": [{"measurement": "expression of differentiation markers Keratin 1, Loricrin, and Filaggrin", "setting": "[5]", "value": "Expression of all three differentiation markers was detected"}, {"measurement": "differentiation at too high medium level of component", "setting": "[4]; 1 mM", "value": "simple epithelial progenitors would not further differentiate into keratinocytes"}]}, {"molecule": "IGF: IGF1 growth factor, medium supplement (10 ng/mL)", "values": [{"measurement": "keratinocyte growth", "setting": "[1]", "value": "support human neonatal foreskin primary keratinocyte growth"}, {"measurement": "morphology at later passages (p6)", "setting": "[2]; [7]", "value": "smaller and appear to be more tightly attached to each other"}, {"measurement": "performance in CFA", "setting": "[3]", "value": "performed similarly"}]}, {"molecule": "NC(=O)c1cccnc1", "note": "[niacinamide, reference compound]", "values": [{"measurement": "life span and stemness of primary keratinocytes in culture", "setting": "[1]", "value": "maintained the stemness of primary keratinocyte stem cells in culture"}, {"measurement": "life span and stemness of primary keratinocytes in culture", "setting": "[1]; listed as Niacinamide", "value": "extend the life span of primary keratinocytes in culture"}, {"measurement": "cell size", "setting": "[2]; primary keratinocytes cultured in the indicated medium", "value": "made the cells smaller"}, {"measurement": "differentiation when concentration of component is not sufficient", "setting": "[4]; [6]", "value": "the differentiation process was incomplete"}]}, {"molecule": "FGF1: acidic fibroblast growth factor", "values": [{"measurement": "K14 expression with different fibroblast growth factors", "setting": "[4]; [8]", "value": "efficiently direct cells to express mature keratinocyte marker K14"}]}, {"molecule": "EGF: epidermal growth factor (NSDSECPLSHDGYCLHDGVCMYIEALDKYACNCVVGYIGERCQYRDLKWWELR; UniProt P01133 971-1023, looked up)", "values": [{"measurement": "differentiation when concentration of component is not sufficient", "setting": "[4]; [6]", "value": "the differentiation process was incomplete"}]}, {"molecule": "FGF2: fibroblast growth factor FGF2", "values": [{"measurement": "K14 expression with different fibroblast growth factors", "setting": "[4]; [8]", "value": "did not promote homogeneous K14 expression"}]}, {"molecule": "insulin: insulin, medium supplement (0-10 μg/mL)", "values": [{"measurement": "keratinocyte growth", "setting": "[1]", "value": "grew well at all concentrations"}, {"measurement": "keratinocyte growth", "setting": "[1]; listed as Insulin", "value": "support human neonatal foreskin primary keratinocyte growth"}, {"measurement": "morphology at later passages (p6)", "setting": "[2]; [7]", "value": "smaller and appear to be more tightly attached to each other"}, {"measurement": "morphology at later passages (p6)", "setting": "[2]; KCM1, high concentrations of insulin (1 μg/mL and higher)", "value": "many larger, differentiated cells"}, {"measurement": "performance in CFA", "setting": "[3]", "value": "performed similarly"}]}]}
